Experimental findings from ChEMBL document CHEMBL1143030, “Synthesis and evaluation of 2-(2,6-dihalophenyl)-3-pyrimidinyl-1,3-thiazolidin-4-one analogues as anti-HIV-1 agents” (Bioorg Med Chem, 2007) are described below.

The test system of data set [1] is Human immunodeficiency virus 1. Put plainly: Antiviral activity against HIV1 3B-induced cytopathic effect in MT4 cells assessed as inhibition of virus-induced syncytium formation. Type of data set: functional, organism-based. Conditions: Human immunodeficiency virus 1, 3B.
Data set [2] can be described thus: Cytotoxicity against mock-infected MT4 cells assessed as reduction of cell viability. Conditions: human. The data set is classed as cell-based.
A short description of data set [3]: Selectivity index, ratio of CC50 for mock-infected MT4 cells to EC50 for HIV1 3B. Type of data set: functional.
In data set [4] the target is Human immunodeficiency virus type 1 reverse transcriptase (Human immunodeficiency virus 1) (UniProt Q72547). The data set can be described thus: Inhibition of HIV1 reverse transcriptase at 100 ug/ml.
The target is the same in data set [5]. The data set can be described thus: Inhibition of HIV1 reverse transcriptase at 10 ug/ml.
The test system of data set [6] is Human immunodeficiency virus 2. The data set can be described thus: Inhibition of HIV2 ROD replication in MT4 cells. The data set is classed as functional, organism-based.
Data set [7] concerns Human immunodeficiency virus 1. Put plainly: Antiviral activity against HIV1 3B-induced cytopathic effect in CEM cells assessed as inhibition of virus-induced syncytium formation. The data set is classed as functional, organism-based. The settings on record: Human immunodeficiency virus 1, 3B, CCRF-CEM. (In general: Cytopathic effects are the visible damage that an infection or toxin causes in cultured cells.)

Data set [8] is described as follows: Cytotoxicity against mock-infected CEM cells assessed as reduction of cell viability. The data set is classed as cell-based. Conditions: human, mock-infected CEM (CCRF-CEM) cells.
A short description of data set [9]: Selectivity index, ratio of CC50 for mock-infected CEM cells to EC50 for HIV1 3B. Type of data set: functional, CCRF-CEM.

Active and inactive are the calls of the source. The rule behind the calls is not given here.

A word on the EC50: it is the concentration at which the effect is half-maximal. The CC50 is the concentration at which the toxic effect on the cells reaches its halfway point. Usually inhibition stands for the relative decrease from the control value, in per cent. A high value points to a response far below the control. For the molecule `O=C1CSC(c2c(Cl)cccc2Cl)N1c1nc(-c2ccccc2)cc(C(F)(F)F)n1` (configuration not stated), the EC50 in data set [1] (read-out: EC50) was above 80.2 µM. Besides, in data set [2], the CC50 came out at 140 µM. In addition, in data set [3], the “Ratio CC50/EC50” value is on record as below 1. Further, the inhibition in data set [4] was 39.4%; in data set [5], 25.4%. In addition, the outcome in data set [6] was inactive.

For the molecule `Cc1cc(N2C(=O)CSC2c2c(F)cccc2Cl)nc(C)n1` (configuration not stated), the EC50 was 4.3 µM in data set [1] (read-out: EC50), 3.98 µM in data set [1] (read-out: Log EC50 (converted)) and 4.1 µM in data set [7]. Further, the CC50 in data set [2] and in [8] was 47.6 µM throughout. In addition, the “Ratio CC50/EC50” value was found to be 11 in [3] and 12 in data set [9]. Also, the inhibition in data set [4] stood at 48.6%; in [5], 9.3%. Moreover, the result in [6] was inactive.

In the case of `Cc1cc(C(F)(F)F)nc(N2C(=O)CSC2c2c(F)cccc2Cl)n1` (configuration not stated), the EC50 in data set [1] (read-out: EC50) was 1.3 µM; in [1] (read-out: Log EC50 (converted)), 1.26 µM; in [7] it was 1.1 µM. In addition, the figures for the CC50 in data set [2] and in data set [8] were 16.9 µM and 19.3 µM, respectively. Further, the “Ratio CC50/EC50” value in data set [3] came to 13; in data set [9], 18. Also, the results for the inhibition in [4] and in data set [5] were 93.7% and 46.3%, respectively. Further, the result in [6] was inactive.

For `Cc1nc(N2C(=O)CSC2c2c(F)cccc2Cl)nc(C)c1C` (configuration not stated), the inhibition in [4] came to 100%; in data set [5] it was 99.3%.

`O=C1CSC(c2c(F)cccc2Cl)N1c1nc(-c2ccccc2)cc(C(F)(F)F)n1` (configuration not stated): the EC50 in data set [1] (read-out: EC50) was above 10.8 µM. For the same molecule, in data set [2], the CC50 came to 93.9 µM. The “Ratio CC50/EC50” value in data set [3] is given as 9. The inhibition worked out at 20.6% in data set [4] and 43.9% in data set [5]. The outcome in data set [6] was inactive.

With `Cc1cc(-c2ccccc2)nc(N2C(=O)CSC2c2c(F)cccc2F)n1` (configuration not stated), the EC50 in data set [1] (read-out: EC50) is 6.4 µM; in data set [1] (read-out: Log EC50 (converted)), 6.31 µM; in data set [7], 5.6 µM. Moreover, the CC50 in data set [2] and in data set [8] was 36.5 µM throughout. Further, the “Ratio CC50/EC50” value in data set [3] and in [9] was 6 in each case. Besides, the inhibition was 54.2% in data set [4] and 47.4% in data set [5]. In addition, the result in [6] was inactive.

Regarding `Cc1cc(C(F)(F)F)nc(N2C(=O)CSC2c2c(Cl)cccc2Cl)n1` (configuration not stated), the EC50 was 1 µM in [1] (read-out: EC50), 1 µM in data set [1] (read-out: Log EC50 (converted)) and 0.8 µM in data set [7]. For the same molecule, the CC50 was found to be 46.4 µM in data set [2] and 46.7 µM in data set [8]. For the same molecule, the “Ratio CC50/EC50” value stood at 46 in data set [3] and 62 in data set [9]. The inhibition in [4] amounted to 43.7%; in data set [5] it was 32.9%. Besides, the outcome in data set [6] was inactive.

In the case of `Clc1cccc(Cl)c1C1SCc2nc3ccccc3n21` (configuration not stated), in [1] (read-out: EC50), the EC50 stood at 0.6 µM. Further, the CC50 in [2] is 9.4 µM. The “Ratio CC50/EC50” value in [3] is reported as 16.

Regarding `Cc1nc(N2C(=O)CSC2c2c(Cl)cccc2Cl)nc(C)c1C` (configuration not stated), the values for the inhibition in data set [4] and in data set [5] were 100% and 94.8%, respectively.

As for `O=C1CSC(c2c(F)cccc2Cl)N1c1nc(-c2ccccc2)cc(-c2ccccc2)n1` (configuration not stated), the EC50 in [1] (read-out: EC50) is above 242 µM. Moreover, the CC50 in [2] is above 201 µM. For the same molecule, the “Ratio CC50/EC50” value in data set [3] is recorded as below 1. In addition, the values for the inhibition in data set [4] and in data set [5] were 66.7% and 55.6%, respectively. Further, in data set [6], the result was inactive.

For `Cc1cc(-c2ccccc2)nc(N2C(=O)CSC2c2c(Cl)cccc2Cl)n1` (configuration not stated), the figures for the EC50 in [1] (read-out: EC50), in [1] (read-out: Log EC50 (converted)) and in [7] were 6.1 µM, 6.31 µM and 5.8 µM, respectively. The CC50 in [2] and in [8] was 35.3 µM throughout. Besides, the “Ratio CC50/EC50” value in [3] and in data set [9] was 6 throughout. The results for the inhibition in data set [4] and in data set [5] were 51.5% and 18%, respectively. Besides, the outcome in data set [6] was inactive.

`Cc1cc(-c2ccccc2)nc(N2C(=O)CSC2c2c(F)cccc2Cl)n1` (configuration not stated): the EC50 was 3.9 µM in [1] (read-out: EC50), 3.98 µM in data set [1] (read-out: Log EC50 (converted)) and 3.9 µM in data set [7]. Moreover, the CC50 in data set [2] was 146 µM; in [8], 172 µM. Moreover, the “Ratio CC50/EC50” value worked out at 38 in [3] and 44 in [9]. The inhibition in [4] turned out to be 79.9%; in [5], 32.7%. Also, the outcome in data set [6] was inactive.

Regarding `Cc1cc(N2C(=O)CSC2c2c(Cl)cccc2Cl)nc(C)n1` (configuration not stated), the EC50 in [1] (read-out: EC50) is 4.3 µM; in data set [1] (read-out: Log EC50 (converted)), 3.98 µM; in [7], 3.8 µM. Besides, the CC50 in data set [2] amounted to 41.3 µM; in data set [8], 42 µM. The “Ratio CC50/EC50” value is on record as 10 in data set [3] and 11 in data set [9]. In addition, the inhibition in data set [4] turned out to be 51.9%; in data set [5], 6.6%. Moreover, in [6], the result was inactive.

On to `O=C1CSC(c2c(F)cccc2F)N1c1nc(-c2ccccc2)cc(-c2ccccc2)n1` (configuration not stated), for which, in [1] (read-out: EC50), the EC50 is above 167 µM. Also, the CC50 in data set [2] was found to be 177 µM. Further, the “Ratio CC50/EC50” value in data set [3] is below 1. Moreover, the inhibition in data set [4] is 44%; in data set [5], 30.1%. The outcome in data set [6] was inactive.

Take `O=C1CSC(c2c(F)cccc2F)N1c1nc(-c2ccccc2)cc(C(F)(F)F)n1` (configuration not stated): the EC50 in data set [1] (read-out: EC50) is above 123 µM. For the same molecule, the CC50 in data set [2] turned out to be 74.3 µM. Also, the “Ratio CC50/EC50” value in data set [3] is given as below 1. The inhibition in data set [4] stood at 6.6%; in [5] it was 15.6%. Moreover, the outcome in [6] was inactive.

As for `Fc1cccc(F)c1C1SCc2nc3ccccc3n21` (configuration not stated) [THIAZOLOBENZIMIDAZOLE], the EC50 is 0.35 µM in [1] (read-out: EC50) and 1.1 µM in data set [7]. Further, the “Ratio CC50/EC50” value in data set [3] is 54.5; in [9], 45.

On to `Cc1cc(N2C(=O)CSC2c2c(F)cccc2F)nc(C)n1` (configuration not stated), for which the EC50 was 25.5 µM in data set [1] (read-out: EC50), 25.1 µM in data set [1] (read-out: Log EC50 (converted)) and 20.3 µM in data set [7]. Also, the CC50 in data set [2] and in data set [8] was 272 µM throughout. The “Ratio CC50/EC50” value in [3] amounted to 11; in data set [9] it was 13. The inhibition in [4] worked out at 58.1%; in data set [5], 27.2%. Further, the outcome in [6] was inactive.

Regarding `Cc1cc(C(F)(F)F)nc(N2C(=O)CSC2c2c(F)cccc2F)n1` (configuration not stated), the 50% effective concentration (EC50) was 5 µM in data set [1] (read-out: EC50), 5.01 µM in data set [1] (read-out: Log EC50 (converted)) and 4.4 µM in [7]. In addition, the CC50 came to 125 µM in data set [2] and 140 µM in [8]. The “Ratio CC50/EC50” value in data set [3] is recorded as 25; in data set [9] it was 32. Also, the inhibition in [4] is 38.9%; in data set [5], 32.3%. Moreover, in [6], the outcome was inactive.

For `O=C1CSC(c2c(Cl)cccc2Cl)N1c1nc(-c2ccccc2)cc(-c2ccccc2)n1` (configuration not stated), the EC50 in data set [1] (read-out: EC50) is above 195 µM. Also, the CC50 in [2] turned out to be 193 µM. In addition, the “Ratio CC50/EC50” value in [3] is on record as below 1. Besides, the values for the inhibition in data set [4] and in data set [5] were 51.4% and 31.6%, respectively. In addition, the outcome in data set [6] was inactive.

Consider `Cc1nc(N2C(=O)CSC2c2c(F)cccc2F)nc(C)c1C` (configuration not stated), for which the values for the EC50 in data set [1] (read-out: EC50), in data set [1] (read-out: Log EC50 (converted)) and in data set [7] were 0.4 µM, 0.398 µM and 0.3 µM, respectively. Further, the CC50 is 341 µM in [2] and above 373 µM in [8]. For the same molecule, the “Ratio CC50/EC50” value is 880 in data set [3] and above 1222 in data set [9]. For the same molecule, the inhibition turned out to be 100% in data set [4] and 96.3% in data set [5]. Moreover, in data set [6], the outcome was inactive.
